Test results reported in patent US11033531B2, “Use of carbamate compound for preventing, alleviating, or treating tremors or tremor syndrome” (SK BIOPHARMACEUTICALS CO., LTD., priority 2016, dated 2021).
Marks after values point to notes of the source that are not given here.

System: oxotremorine-induced tremor in rats
Experiment: Oxotremorine-induced tremor in rats
Assay type: in vivo, rat
Settings: for Number of tremor behaviors: male SD rats, behaviors of at least 0.5 s in 2,048 s, mean±SEM
Source text: As a model for assessing the potential efficacy of therapeutic agents that can effectively treat essential tremor and other tremor syndromes, oxotremorine-induced tremor in rats was used [B Cox, D Potkonjak, Effects of drugs on tremor and increase in brain acetylcholine produced by oxotremorine in the rat, Br. J. Pharmac., 1970, 38, 171-180].
Male SD rats (CrjBgi:CD(SD)IGS) were purchased from Orient Bio, Inc. of Korea, and placed in a wire mesh cage under conditions of ambient temperature of 20 to 24° C., 55 to 75% relative humidity, an automatically controlled light-and-darkness cycle of 12 hours and free access to feed (purchased from Agri Brands Purina Korea, Inc.) and water. The rats were housed and maintained in accordance with the Laboratory Animal Care Standards of the Institutional Animal Care and Use Committee (IACUC). After about one week of stabilization, rats weighing 200 to 240 g were used in the experiment. The rats to be used for the experiment were fasted by removing the feed 16 hours before the experiment, and placed in a tremor measurement device (Tremor Monitor™, San Diego Instruments, CA) 3 hours before the experiment and adapted for 10 minutes.
The test compound was prepared by dissolving it in 30% polyethylene glycol 400 (purchased from Sigma) used as a vehicle 30-45 minutes before each experiment. The vehicle and the test compound (3, 10 and 30 mg/kg dose) were administered into the oral cavity, respectively, in a volume of 4 ml per 1 kg body weight of the rat. After 60 minutes, oxotremorine (oxotremorine sesquifumarate salt, 1-(4-[1-Pyrrolidinyl]-2-butynyl)-2-pyrrolidinone sesquifumarate; purchased from Sigma) dissolved in saline and prepared in a volume of […] or a saline were subcutaneously injected into the back of the rat neck in a volume of 2 ml per 1 kg body weight of the rat. Oxotremorine-administered rats were immediately placed in a tremor measurement device (filter frequency 12 Hz, band-width 6 Hz, filter number 2), and the number of tremor behaviors that progressed for at least 0.5 seconds in 2,048 seconds were automatically measured and recorded. The number of rats per group was 16.
All data were expressed as mean±SEM. The number of oxotremorine-induced tremor behaviors in the group treated with the test compound was expressed as % inhibition compared to the vehicle group. Statistical analysis of the number of tremor behaviors between groups was performed using one-way ANOVA (one-way analysis of variance) and Dunnett's multiple comparison test by using the GraphPad Prism ver. 4.0 program. The mean number of tremor behaviors in the vehicle/oxotremorine group was observed as 29.8±8.1, and the mean number of tremor behaviors in the vehicle/saline group was observed as 9.2±2.5.

**Q.** What does the source list for `NC(=O)O[C@@H](Cn1ncnn1)c1ccccc1Cl` [Test compound]?
**A.** ED50 (Rattus norvegicus, po, rats, inhibition of oxotremorine-induced tremor behaviors, read-out: Calculated Median Effective Dose (ED50)): 1.67 mg/kg; inhibition at 3 mg/kg (Rattus norvegicus, po, 3 mg/kg p.o., rats, vs vehicle/oxotremorine group, corrected for vehicle/saline group, read-out: Inhibition rate compared to negative group): 50.3%; inhibition at 10 mg/kg (Rattus norvegicus, po, 10 mg/kg p.o., rats, vs vehicle/oxotremorine group, corrected for vehicle/saline group, read-out: Inhibition rate compared to negative group): 78.7%; inhibition at 30 mg/kg (Rattus norvegicus, po, 30 mg/kg p.o., rats, vs vehicle/oxotremorine group, corrected for vehicle/saline group, read-out: Inhibition rate compared to negative group): 130%; Number of tremor behaviors (3 mg/kg p.o. 60 min before oxotremorine s.c.): 19.4 ± 3.7; Number of tremor behaviors (10 mg/kg p.o. 60 min before oxotremorine s.c.): 13.6 ± 0.1^2); Number of tremor behaviors (30 mg/kg p.o. 60 min before oxotremorine s.c.): 2.9 ± 0.5^1); Pharmacological activity in the oxotremorine-induced tremor behavior model (rats, 3, 10 and 30 mg/kg p.o.): significant pharmacological activity
